The text below walks through data of patent publication US20250144094A1 (Erasca, Inc., priority 2021, published 2025).

The target in this assay is Recombinant human ULK1 (1-649) (Homo sapiens (Human), UniProt O75385). Description: ULK1 ADP Glo kinase activity assay, new method (ULKtide peptide substrate). As to conditions: 25° C., 40 minutes, read-out: ULK1 biochemical IC50. The method, boiled down: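 GST-tagged human ULK1 (1-649) from Sf9 cells was reacted with ULKtide peptide and ATP for 40 min at 25 °C across 12-point compound dilutions from 10 μM. ADP formed was quantified by ADP-Glo luminescence; IC50 came from four-parameter fits relative to DMSO controls.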
(ADP-Glo turns the ADP formed in a reaction into a luminescent signal.)

Molecules are shown by their SMILES. Some results are limits rather than exact numbers.

In general, IC50 refers to the concentration at which inhibition is half-maximal.

Recombinant human ULK1 (1-649), sequence (O75385 1-649): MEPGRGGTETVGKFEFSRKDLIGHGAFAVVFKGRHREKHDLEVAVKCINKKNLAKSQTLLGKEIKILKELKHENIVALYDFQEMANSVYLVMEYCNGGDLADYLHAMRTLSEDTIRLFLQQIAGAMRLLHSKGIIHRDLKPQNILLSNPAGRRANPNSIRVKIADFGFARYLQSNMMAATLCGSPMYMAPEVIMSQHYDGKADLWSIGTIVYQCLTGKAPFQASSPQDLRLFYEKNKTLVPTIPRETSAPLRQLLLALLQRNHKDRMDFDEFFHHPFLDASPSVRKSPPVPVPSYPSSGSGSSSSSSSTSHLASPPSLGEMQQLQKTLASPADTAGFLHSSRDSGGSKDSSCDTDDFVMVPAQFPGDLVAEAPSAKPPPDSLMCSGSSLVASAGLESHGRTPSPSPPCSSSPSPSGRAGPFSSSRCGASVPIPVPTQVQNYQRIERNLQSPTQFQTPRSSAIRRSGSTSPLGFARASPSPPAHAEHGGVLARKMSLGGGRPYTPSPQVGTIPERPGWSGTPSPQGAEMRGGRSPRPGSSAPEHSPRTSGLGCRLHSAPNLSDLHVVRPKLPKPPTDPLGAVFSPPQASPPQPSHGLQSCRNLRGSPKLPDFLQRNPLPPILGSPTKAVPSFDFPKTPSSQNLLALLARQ

Consider `CN1CCS(=O)(=O)c2cc(-c3nc(Nc4cc5c(cc4Cl)CN(CCF)CC5)ncc3C(F)(F)F)sc2C1=O` [Example 237, 7-(2-((7-chloro-2-(2-fluoroethyl)-1,2,3,4-tetrahydroisoquinolin-6-yl)amino)-5-(trifluoromethyl)pyrimidin-4-yl)-4-methyl-3,4-dihydrothieno[2,3-f][1,4]thiazepin-5(2H)-one 1,1-dioxide], for which the IC50 is no more than 5 nM. Under `CN1CCS(=O)(=O)c2cc(-c3nc(Nc4ccc(N5CCNCC5)cc4C4CC4)ncc3C(F)(F)F)sc2C1=O` [Example 238, 7-(2-((2-cyclopropyl-4-(piperazin-1-yl)phenyl)amino)-5-(trifluoromethyl)pyrimidin-4-yl)-4-methyl-3,4-dihydrothieno[2,3-f][1,4]thiazepin-5(2H)-one 1,1-dioxide] stands 5 to 10 nM; under `O=C1c2sc(-c3nc(Nc4ccc(N5CCNCC5)cc4C4CC4)ncc3C(F)(F)F)cc2S(=O)(=O)CCN1C1CC1` [Example 239, 4-cyclopropyl-7-(2-((2-cyclopropyl-4-(piperazin-1-yl)phenyl)amino)-5-(trifluoromethyl)pyrimidin-4-yl)-3,4-dihydrothieno[2,3-f][1,4]thiazepin-5(2H)-one 1,1-dioxide], no more than 5 nM. In the case of `O=C1c2sc(-c3nc(Nc4ccc(C5CCNCC5)cc4C4CC4)ncc3C(F)(F)F)cc2S(=O)(=O)CCN1C1CC1` [Example 240, 4-cyclopropyl-7-(2-((2-cyclopropyl-4-(piperidin-4-yl)phenyl)amino)-5-(trifluoromethyl)pyrimidin-4-yl)-3,4-dihydrothieno[2,3-f][1,4]thiazepin-5(2H)-one 1,1-dioxide], the IC50 is no more than 5 nM. As for `O=C1c2sc(-c3nc(Nc4ccc(C5CCN(CC6CC6)CC5)cc4C4CC4)ncc3C(F)(F)F)cc2S(=O)(=O)CCN1C1CC1` [Example 241, 4-cyclopropyl-7-(2-((2-cyclopropyl-4-(1-(cyclopropylmethyl)piperidin-4-yl)phenyl)amino)-5-(trifluoromethyl)pyrimidin-4-yl)-3,4-dihydrothieno[2,3-f][1,4]thiazepin-5(2H)-one 1,1-dioxide], the figure is no more than 5 nM; as for `CCc1cc2c(cc1Nc1ncc(C(F)(F)F)c(-c3cc4c(s3)C(=O)N(C3CC3)CCS4(=O)=O)n1)CCN(CC1CC1)C2` [Example 242, 4-cyclopropyl-7-(2-((2-(cyclopropylmethyl)-7-ethyl-1,2,3,4-tetrahydroisoquinolin-6-yl)amino)-5-(trifluoromethyl)pyrimidin-4-yl)-3,4-dihydrothieno[2,3-f][1,4]thiazepin-5(2H)-one 1,1-dioxide], no more than 5 nM; as for `CCc1cc2c(cc1Nc1ncc(C(F)(F)F)c(-c3cc4c(s3)C(=O)N(C3CC3)CCS4(=O)=O)n1)CCN(CCF)C2` [Example 243], no more than 5 nM.

Consider `CCN1CCc2cc(Nc3ncc(C(F)(F)F)c(-c4cc5c(s4)C(=O)N(C4COC4)CCS5(=O)=O)n3)c(C3CC3)cc2C1` [Example 244, 7-(2-((7-cyclopropyl-2-ethyl-1,2,3,4-tetrahydroisoquinolin-6-yl)amino)-5-(trifluoromethyl)pyrimidin-4-yl)-4-(oxetan-3-yl)-3,4-dihydrothieno[2,3-f][1,4]thiazepin-5(2H)-one 1,1-dioxide], for which the concentration for half-maximal inhibition (IC50) was no more than 5 nM.

Consider `CN1CCS(=O)(=O)c2cc(-c3nc(Nc4cc5c(cc4Cl)CN(CC4CC4)CC5)ncc3C(F)(F)F)sc2C1=O` [Example 246, 7-(2-((7-chloro-2-(cyclopropylmethyl)-1,2,3,4-tetrahydroisoquinolin-6-yl)amino)-5-(trifluoromethyl)pyrimidin-4-yl)-4-methyl-3,4-dihydrothieno[2,3-f][1,4]thiazepin-5(2H)-one 1,1-dioxide], for which the IC50 was no more than 5 nM.

Turning to `CSc1cc2c(cc1Nc1ncc(C(F)(F)F)c(-c3cc4c(s3)C(=O)N(C3CC3)CCS4(=O)=O)n1)CCNC2` [Example 247, 4-cyclopropyl-7-(2-((7-(methylthio)-1,2,3,4-tetrahydroisoquinolin-6-yl)amino)-5-(trifluoromethyl)pyrimidin-4-yl)-3,4-dihydrothieno[2,3-f][1,4]thiazepin-5(2H)-one 1,1-dioxide], the IC50 is no more than 5 nM. As for `CC(C)N1CCc2cc(Nc3ncc(C(F)(F)F)c(-c4cc5c(s4)C(=O)N(C4CC4)CCS5(=O)=O)n3)c(C3CC3)cc2C1` [Example 248, 4-cyclopropyl-7-(2-((7-cyclopropyl-2-isopropyl-1,2,3,4-tetrahydroisoquinolin-6-yl)amino)-5-(trifluoromethyl)pyrimidin-4-yl)-3,4-dihydrothieno[2,3-f][1,4]thiazepin-5(2H)-one 1,1-dioxide], the IC50 was no more than 5 nM. Under `O=C1c2sc(-c3nc(Nc4cc5c(cc4C4CC4)CN(CCF)CC5)ncc3C(F)(F)F)cc2S(=O)(=O)CCN1C1CC1` [Example 249, 4-cyclopropyl-7-(2-((7-cyclopropyl-2-(2-fluoroethyl)-1,2,3,4-tetrahydroisoquinolin-6-yl)amino)-5-(trifluoromethyl)pyrimidin-4-yl)-3,4-dihydrothieno[2,3-f][1,4]thiazepin-5(2H)-one 1,1-dioxide] stands no more than 5 nM.

Turning to `CN1CCS(=O)(=O)c2cc(-c3nc(Nc4ccc(N5CCN(CC6CC6)CC5)cc4C4CC4)ncc3C(F)(F)F)sc2C1=O` [Example 250, 7-(2-((2-cyclopropyl-4-(4-(cyclopropylmethyl)piperazin-1-yl)phenyl)amino)-5-(trifluoromethyl)pyrimidin-4-yl)-4-methyl-3,4-dihydrothieno[2,3-f][1,4]thiazepin-5(2H)-one 1,1-dioxide], the IC50 is no more than 5 nM. As for `CN1CCC(c2ccc(Nc3ncc(C(F)(F)F)c(-c4cc5c(s4)C(=O)N(C4CC4)CCS5(=O)=O)n3)c(C3CC3)c2)CC1` [Example 252, 4-cyclopropyl-7-(2-((2-cyclopropyl-4-(1-methylpiperidin-4-yl)phenyl)amino)-5-(trifluoromethyl)pyrimidin-4-yl)-3,4-dihydrothieno[2,3-f][1,4]thiazepin-5(2H)-one 1,1-dioxide], the figure is no more than 5 nM; as for `CCN1CCC(c2ccc(Nc3ncc(C(F)(F)F)c(-c4cc5c(s4)C(=O)N(C4CC4)CCS5(=O)=O)n3)c(C3CC3)c2)CC1` [Example 253, 4-cyclopropyl-7-(2-((2-cyclopropyl-4-(1-ethylpiperidin-4-yl)phenyl)amino)-5-(trifluoromethyl)pyrimidin-4-yl)-3,4-dihydrothieno[2,3-f][1,4]thiazepin-5(2H)-one 1,1-dioxide], no more than 5 nM; as for `O=C1c2sc(-c3nc(Nc4ccc(C5CCN(CC6COC6)CC5)cc4C4CC4)ncc3C(F)(F)F)cc2S(=O)(=O)CCN1C1CC1` [Example 254, 4-cyclopropyl-7-(2-((2-cyclopropyl-4-(1-(oxetan-3-ylmethyl)piperidin-4-yl)phenyl)amino)-5-(trifluoromethyl)pyrimidin-4-yl)-3,4-dihydrothieno[2,3-f][1,4]thiazepin-5(2H)-one 1,1-dioxide], no more than 5 nM.

`CCN1CCN(c2ccc(Nc3ncc(C(F)(F)F)c(-c4cc5c(s4)C(=O)N(C4CC4)CCS5(=O)=O)n3)c(C3CC3)c2)CC1` [Example 255, 4-cyclopropyl-7-(2-((2-cyclopropyl-4-(4-ethylpiperazin-1-yl)phenyl)amino)-5-(trifluoromethyl)pyrimidin-4-yl)-3,4-dihydrothieno[2,3-f][1,4]thiazepin-5(2H)-one 1,1-dioxide]: the concentration for half-maximal inhibition (IC50) was no more than 5 nM. Under `O=C1c2sc(-c3nc(Nc4cc5c(cc4C4CC4)CN(CC4CC4)CC5)ncc3C(F)(F)F)cc2S(=O)(=O)CCN1C1COC1` [Example 256, 7-(2-((7-cyclopropyl-2-(cyclopropylmethyl)-1,2,3,4-tetrahydroisoquinolin-6-yl)amino)-5-(trifluoromethyl)pyrimidin-4-yl)-4-(oxetan-3-yl)-3,4-dihydrothieno[2,3-f][1,4]thiazepin-5(2H)-one 1,1-dioxide] stands no more than 5 nM; under `O=C1c2sc(-c3nc(Nc4cc5c(cc4C4CC4)CN(CC4COC4)CC5)ncc3C(F)(F)F)cc2S(=O)(=O)CCN1C1COC1` [Example 257, 7-(2-((7-cyclopropyl-2-(oxetan-3-ylmethyl)-1,2,3,4-tetrahydroisoquinolin-6-yl)amino)-5-(trifluoromethyl)pyrimidin-4-yl)-4-(oxetan-3-yl)-3,4-dihydrothieno[2,3-f][1,4]thiazepin-5(2H)-one 1,1-dioxide], no more than 5 nM; under `CCc1cc2c(cc1Nc1ncc(C(F)(F)F)c(-c3cc4c(s3)C(=O)N(CC(F)(F)F)CCS4(=O)=O)n1)CNCC2` [Example 258, 7-(2-((6-ethyl-1,2,3,4-tetrahydroisoquinolin-7-yl)amino)-5-(trifluoromethyl)pyrimidin-4-yl)-4-(2,2,2-trifluoroethyl)-3,4-dihydrothieno[2,3-f][1,4]thiazepin-5(2H)-one 1,1-dioxide], no more than 5 nM. Under `Cc1cnc(Nc2cc3c(cc2Cl)CNCC3)nc1-c1cc2c(s1)C(=O)N(C)CCS2(=O)=O` [Example 259, 7-(2-((7-chloro-1,2,3,4-tetrahydroisoquinolin-6-yl)amino)-5-methylpyrimidin-4-yl)-4-methyl-3,4-dihydrothieno[2,3-f][1,4]thiazepin-5(2H)-one 1,1-dioxide] stands no more than 5 nM; under `Cc1cnc(Nc2cc3c(cc2C2CC2)CNCC3)nc1-c1cc2c(s1)C(=O)N(C1CC1)CCS2(=O)=O` [Example 260, 4-cyclopropyl-7-(2-((7-cyclopropyl-1,2,3,4-tetrahydroisoquinolin-6-yl)amino)-5-methylpyrimidin-4-yl)-3,4-dihydrothieno[2,3-f][1,4]thiazepin-5(2H)-one 1,1-dioxide], no more than 5 nM; under `O=C1c2sc(-c3nc(Nc4cc5c(cc4C4CC4)CNCC5)ncc3C3CC3)cc2S(=O)(=O)CCN1C1CC1` [Example 261, 4-cyclopropyl-7-(5-cyclopropyl-2-((7-cyclopropyl-1,2,3,4-tetrahydroisoquinolin-6-yl)amino)pyrimidin-4-yl)-3,4-dihydrothieno[2,3-f][1,4]thiazepin-5(2H)-one 1,1-dioxide], no more than 5 nM.
